Earlier results as cited in US20210267912A1, “METHYL SULFONYL METHANE-CONTAINING COMPOSITION FOR PREVENTING OR ALLEVIATING OBESITY, FATTY LIVER, AND DIABETES” (priority 2018, published 2021).

Conditions: animal toxicity test

SMILES: CS(C)(=O)=O [Methylsulfonylmethane]
- Half lethal dose: more than 20 g per 1 kg of body weight
